Measurements reported in US20260241026A1, “THERAPEUTIC METHOD FOR LOW-DRUG-SENSITIVITY CANCERS BY ADMINISTRATION OF ANTI-MUC1 ANTIBODY-DRUG CONJUGATE” (priority 2023, published 2026).

Columns and labels:
[1] = tested on: lung cancer PDX model (NIBIO-NS1); assay: Antitumor test in lung cancer patient-derived xenograft model NIBIO-NS1; assay type: in vivo, female nude mice
Text: NIBIO-NS1 was obtained as a lung cancer PDX model from the National Institute of Biomedical Innovation. A frozen tumor section of NIBIO-NS1 was thawed and subcutaneously transplanted to 5-week old female NSG mice (NOD. Cg-Prkdc Il2rg<tm1Wjl>/SzJ: purchased from Jackson Laboratory Japan, Inc.) using a trocar. Grown tumor was collected, cut into small pieces, and transplanted again to female nude mice (CAnN. Cg-Foxn1nu/CrlCrlj: purchased from Jackson Laboratory Japan, Inc.) using a trocar, followed by extended growth.
The female nude mice with transplanted NIBIO-NS1 were grouped 10 days after transplantation when their average tumor volume became about 157 mm^3. […] Six mice per group were used in groups 1 and 2, and 12 mice were used in group 3.

[2] = tested on: bladder cancer PDX model (NIBIO-K071); assay: Antitumor test in bladder cancer patient-derived xenograft model NIBIO-K071; assay type: in vivo, female nude mice
Text: NIBIO-[…] was obtained as a bladder cancer patient-derived xenograft model (PDX model) from the National Institute of Biomedical Innovation. A frozen tumor section of NIBIO-[…] was thawed and subcutaneously transplanted to 4- to 6-week old female NSG mice (NOD. Cg-Prkdc Il2rg<tm1Wjl>/SzJ: purchased from Charles River Laboratories Japan, Inc.) using a trocar. Grown tumor was collected, cut into small pieces, and transplanted again to female NSG mice or female nude mice (CAnN. Cg-Foxn1nu/CrlCrlj: purchased from Charles River Laboratories Japan, Inc.) using a trocar, followed by extended growth. TA-MUC1-, Nectin-4-, and TROP2-positive findings were confirmed in the tumor of this model by immunohistochemical staining (IHC). An estimated tumor volume (ETV) was calculated as described below. Estimated tumor volume (volume,mm^3)=Major axis (mm)×Minor axis (mm)^2/2 The female nude mice with transplanted NIBIO-[…] were grouped 25 days after transplantation when their average tumor volume became about 200 mm^3. […] ABS buffer was administered to a Vehicle administration group. Six mice per group were used in all the groups. After initial administration, body weights and tumor sizes were measured twice a week, and estimated tumor volumes were calculated.

[3] = tested on: human breast cancer cell line HCC70; assay: Antitumor test in model with transplanted breast cancer cell line HCC70 (Example 3); assay type: in vivo, female nude mouse
Experimental: The mice were grouped 18 days after transplantation when their average tumor volume became about 165 mm^3. […] ABS buffer was administered to a Vehicle administration group. Six mice per group were used in all the groups.

[4] = 10 mg/kg, QW × two doses (Days 0, 7)
[5] = Day 21, 10 mg/kg, QW × 2, intravenous

datopotamab deruxtecan [TROP2-DXd ADC, reference compound]
tumor course after regrouping of the TROP2-DXd ADC administration group ([1]; 10 mg/kg on Day 11 to tumors pre-treated with TROP2-DXd ADC, up to Day 31 (TA-MUC1-DXd ADC) or Day 21 (TROP2-DXd ADC)): grew continuously
tumor regression effect ([1]; Day 11, 10 mg/kg on Day 0, NIBIO-NS1): no tumor regression
ETV (mm^3) Mean ([1]; Day 11, 10 mg/kg, Day 0, intravenous, NIBIO-NS1): 453 mm^3

enfortumab vedotin [Nectin-4-MMAE ADC, reference compound]
tumor regression ([2]; 3 mg/kg, QW × three doses (Days 0, 7, 14)): did not reach tumor regression
ETV (mm^3) Mean ([2]; Day 21, 3 mg/kg, QW × 3, intravenous): 772 mm^3

sacituzumab govitecan [TROP2-SN38 ADC, reference compound]
tumor regression [3, 4]: no tumor regression
ETV (mm^3) Mean [3, 5]: 361 mm^3
tumor regression [2, 4]: did not reach tumor regression
ETV (mm^3) Mean [2, 5]: 383 mm^3
